In patent US6887897B2, “Calcium glutarate supplement and phosphorus binder” (Mission Pharmacal Company, priority 2001, dated 2005):

Columns and labels:
[1] = in-vitro test of ability of calcium glutarate to bind with phosphates (free calcium in filtrate by atomic absorption spectrometry); conditions: filtered through 0.45-μm nylon filter
Protocol: (§1) The following in-vitro tests were conducted to test the solubility and ability of calcium glutarate to bind with phosphates. The tests included analysis for monobasic, Ca(Na2PO4)2, dibasic, CaNaPO4, and tribasic, Ca(PO4)2 binding. The three examples are as follows.
(§2) An aqueous solution of calcium glutarate was mixed with a twice over molar solution of sodium phosphate. A suspension formed which was filtered by a vacuum through a 0.45-μm nylon filter. The resulting filtrate was assayed for free calcium by atomic absorption spectrometry. The percent of calcium recovered in solution was 0.1%.
as §2, with “mixed with an equi-molar solution of” for “mixed with a twice over molar solution of”, “filtered by vacuum through” for “filtered by a vacuum through”
An aqueous solution of calcium glutarate was mixed with a two-thirds molar solution of sodium phosphate. A suspension formed which was filtered by vacuum through a 0.45-μm nylon filter. The resulting filtrate was assayed for free calcium by atomic absorption spectrometry. The percent of calcium, recovered in solution was 4.5%.

[2] = aqueous solubility of calcium salts; assay type: physicochemical
Protocol: as §1

**Q.** With `O=C([O-])CCCC(=O)[O-].[Ca+2]` [calcium glutarate] as the compound, how does the “percent of calcium recovered in solution” value ([1]; mixed with a twice over molar solution of sodium phosphate) read?
**A.** Its value is 0.1%.

**Q.** And the “percent of calcium recovered in solution” value ([1]; mixed with a two-thirds molar solution of sodium phosphate)?
**A.** The value was 4.5%.

**Q.** And the “percent of calcium recovered in solution” value ([1]; mixed with an equi-molar solution of sodium phosphate)?
**A.** The value was 0.1%.

**Q.** And the solubility [2]?
**A.** Its solubility is “about 5.2 gm per 100 cc”.
